Test results reported in ChEMBL document CHEMBL5653615 (J Biol Chem, 2013).

How the values were obtained:
[1] = biological target: Activated CDC42 kinase 1 (Homo sapiens) (UniProt Q07912); assay: Inhibition of human ACK1 at 500 nM by HotSpot assay relative to control
[2] = biological target: RAC-beta serine/threonine-protein kinase (Homo sapiens) (UniProt P31751); assay: Inhibition of human AKT2 at 500 nM by HotSpot assay relative to control
[3] = biological target: Activin receptor type-1-like (Homo sapiens) (UniProt P37023); assay: Inhibition of human ALK1 at 500 nM by HotSpot assay relative to control
[4] = biological target: Cyclin-dependent kinase 2/cyclin E1 (Homo sapiens) (UniProt P24864+P24941); assay: Inhibition of human CDK2/cyclin E at 500 nM by HotSpot assay relative to control; type: protein-complex assay
[5] = biological target: CDK9/cyclin T1 (Homo sapiens) (UniProt O60563+P50750); assay: Inhibition of human CDK9/cyclin T1 at 500 nM by HotSpot assay relative to control; type: protein-complex assay
[6] = biological target: Fibroblast growth factor receptor 4 (Homo sapiens) (UniProt P22455); assay: Inhibition of human FGFR4 at 500 nM by HotSpot assay relative to control
[7] = biological target: Receptor-type tyrosine-protein kinase FLT3 (Homo sapiens) (UniProt P36888); assay: Inhibition of human FLT3 at 500 nM by HotSpot assay relative to control
[8] = biological target: T1, Inhibitor of nuclear factor kappa-B kinase subunit alpha (Homo sapiens) (UniProt O15111); assay: Inhibition of human IKKa at 500 nM by HotSpot assay relative to control
T1 sequence (whole entry): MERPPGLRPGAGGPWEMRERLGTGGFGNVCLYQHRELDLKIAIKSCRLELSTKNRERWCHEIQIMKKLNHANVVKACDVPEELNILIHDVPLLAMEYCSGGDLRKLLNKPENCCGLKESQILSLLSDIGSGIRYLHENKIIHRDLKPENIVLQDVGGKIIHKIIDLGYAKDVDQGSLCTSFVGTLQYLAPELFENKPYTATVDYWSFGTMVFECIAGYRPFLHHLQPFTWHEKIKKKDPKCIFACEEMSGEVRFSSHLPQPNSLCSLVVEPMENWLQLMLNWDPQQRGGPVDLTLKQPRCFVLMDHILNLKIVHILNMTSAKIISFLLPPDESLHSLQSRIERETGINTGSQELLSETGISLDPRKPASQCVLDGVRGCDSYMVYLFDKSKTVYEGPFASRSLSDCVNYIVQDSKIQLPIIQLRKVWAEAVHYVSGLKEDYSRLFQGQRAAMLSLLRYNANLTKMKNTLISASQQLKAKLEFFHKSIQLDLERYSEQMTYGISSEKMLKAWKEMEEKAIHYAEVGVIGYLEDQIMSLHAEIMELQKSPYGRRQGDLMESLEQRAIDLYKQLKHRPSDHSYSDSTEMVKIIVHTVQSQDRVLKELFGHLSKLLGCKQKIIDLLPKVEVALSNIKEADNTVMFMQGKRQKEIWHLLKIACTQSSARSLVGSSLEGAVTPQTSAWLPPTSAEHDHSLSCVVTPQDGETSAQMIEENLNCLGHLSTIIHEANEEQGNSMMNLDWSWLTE

[9] = biological target: Serine/threonine-protein kinase PAK 6 (Homo sapiens) (UniProt Q9NQU5); assay: Inhibition of human PAK6 at 500 nM by HotSpot assay relative to control
[10] = biological target: Serine/threonine-protein kinase pim-3 (Homo sapiens) (UniProt Q86V86); assay: Inhibition of human PIM3 at 500 nM by HotSpot assay relative to control
[11] = biological target: T2, Serine/threonine-protein kinase Sgk2 (Homo sapiens) (UniProt Q9HBY8); assay: Inhibition of human SGK2 at 500 nM by HotSpot assay relative to control
T2 sequence (whole entry): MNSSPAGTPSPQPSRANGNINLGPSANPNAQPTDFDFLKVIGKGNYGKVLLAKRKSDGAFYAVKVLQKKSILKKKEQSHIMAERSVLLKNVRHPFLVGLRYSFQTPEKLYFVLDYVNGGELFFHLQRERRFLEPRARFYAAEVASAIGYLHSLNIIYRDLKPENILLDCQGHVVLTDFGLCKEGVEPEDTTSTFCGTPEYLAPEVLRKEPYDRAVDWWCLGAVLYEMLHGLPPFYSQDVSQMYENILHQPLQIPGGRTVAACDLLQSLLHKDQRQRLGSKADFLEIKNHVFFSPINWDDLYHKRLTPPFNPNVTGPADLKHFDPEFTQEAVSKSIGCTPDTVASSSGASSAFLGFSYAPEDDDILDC

[12] = biological target: T3, NUAK family SNF1-like kinase 2 (Homo sapiens) (UniProt Q9H093); assay: Inhibition of human NUAK2 at 500 nM by HotSpot assay relative to control
T3 sequence (whole entry): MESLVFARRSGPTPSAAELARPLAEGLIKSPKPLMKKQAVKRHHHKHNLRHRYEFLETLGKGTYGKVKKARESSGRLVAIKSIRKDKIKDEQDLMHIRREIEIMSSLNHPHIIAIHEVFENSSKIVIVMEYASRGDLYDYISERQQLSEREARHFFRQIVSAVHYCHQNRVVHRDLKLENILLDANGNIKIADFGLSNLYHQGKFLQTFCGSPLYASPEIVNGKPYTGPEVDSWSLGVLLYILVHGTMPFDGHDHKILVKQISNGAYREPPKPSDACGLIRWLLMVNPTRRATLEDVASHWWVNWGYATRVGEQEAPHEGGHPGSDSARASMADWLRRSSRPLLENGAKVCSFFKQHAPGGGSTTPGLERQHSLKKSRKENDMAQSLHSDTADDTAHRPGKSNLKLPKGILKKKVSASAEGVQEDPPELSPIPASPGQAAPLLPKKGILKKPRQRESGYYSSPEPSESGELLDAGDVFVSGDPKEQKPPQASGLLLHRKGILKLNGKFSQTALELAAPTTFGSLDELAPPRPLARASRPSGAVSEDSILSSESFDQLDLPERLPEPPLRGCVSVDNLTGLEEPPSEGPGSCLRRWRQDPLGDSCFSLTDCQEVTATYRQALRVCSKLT

[13] = biological target: SRSF protein kinase 1 (Homo sapiens) (UniProt Q96SB4); assay: Inhibition of human SRPK1 at 500 nM by HotSpot assay relative to control
[14] = biological target: Angiopoietin-1 receptor (Homo sapiens) (UniProt Q02763); assay: Inhibition of human TEK at 500 nM by HotSpot assay relative to control
[15] = biological target: Tyrosine-protein kinase Yes (Homo sapiens) (UniProt P07947); assay: Inhibition of human YES1 at 500 nM by HotSpot assay relative to control

Receptor-type tyrosine-protein kinase FLT3 (Homo sapiens), sequence (P36888 whole entry): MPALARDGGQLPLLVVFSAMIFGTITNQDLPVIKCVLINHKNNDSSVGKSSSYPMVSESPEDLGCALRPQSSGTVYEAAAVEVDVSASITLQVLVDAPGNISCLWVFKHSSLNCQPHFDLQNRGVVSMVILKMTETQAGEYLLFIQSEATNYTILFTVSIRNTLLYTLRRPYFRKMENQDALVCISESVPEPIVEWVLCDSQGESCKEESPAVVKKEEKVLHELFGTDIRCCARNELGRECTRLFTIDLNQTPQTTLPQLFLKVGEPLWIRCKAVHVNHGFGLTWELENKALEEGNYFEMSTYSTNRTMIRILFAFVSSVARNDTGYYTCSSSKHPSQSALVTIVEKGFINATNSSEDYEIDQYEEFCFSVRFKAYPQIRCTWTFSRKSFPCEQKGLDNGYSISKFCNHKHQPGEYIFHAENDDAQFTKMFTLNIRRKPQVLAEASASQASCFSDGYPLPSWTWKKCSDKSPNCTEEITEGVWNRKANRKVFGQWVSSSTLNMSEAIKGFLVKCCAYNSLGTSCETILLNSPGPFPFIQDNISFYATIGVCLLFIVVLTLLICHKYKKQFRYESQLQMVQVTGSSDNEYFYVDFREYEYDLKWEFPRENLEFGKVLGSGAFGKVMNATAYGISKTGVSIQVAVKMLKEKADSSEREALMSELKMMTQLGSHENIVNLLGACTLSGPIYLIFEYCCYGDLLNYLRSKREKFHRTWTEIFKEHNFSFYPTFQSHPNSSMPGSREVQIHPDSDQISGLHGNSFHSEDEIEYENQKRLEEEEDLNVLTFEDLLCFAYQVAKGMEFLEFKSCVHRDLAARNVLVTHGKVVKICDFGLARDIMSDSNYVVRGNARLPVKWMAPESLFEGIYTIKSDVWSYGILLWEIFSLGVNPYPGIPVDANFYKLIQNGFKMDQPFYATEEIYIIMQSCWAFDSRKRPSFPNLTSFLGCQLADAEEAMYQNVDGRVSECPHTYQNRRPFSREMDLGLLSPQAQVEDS
SRSF protein kinase 1 (Homo sapiens), sequence (Q96SB4 whole entry): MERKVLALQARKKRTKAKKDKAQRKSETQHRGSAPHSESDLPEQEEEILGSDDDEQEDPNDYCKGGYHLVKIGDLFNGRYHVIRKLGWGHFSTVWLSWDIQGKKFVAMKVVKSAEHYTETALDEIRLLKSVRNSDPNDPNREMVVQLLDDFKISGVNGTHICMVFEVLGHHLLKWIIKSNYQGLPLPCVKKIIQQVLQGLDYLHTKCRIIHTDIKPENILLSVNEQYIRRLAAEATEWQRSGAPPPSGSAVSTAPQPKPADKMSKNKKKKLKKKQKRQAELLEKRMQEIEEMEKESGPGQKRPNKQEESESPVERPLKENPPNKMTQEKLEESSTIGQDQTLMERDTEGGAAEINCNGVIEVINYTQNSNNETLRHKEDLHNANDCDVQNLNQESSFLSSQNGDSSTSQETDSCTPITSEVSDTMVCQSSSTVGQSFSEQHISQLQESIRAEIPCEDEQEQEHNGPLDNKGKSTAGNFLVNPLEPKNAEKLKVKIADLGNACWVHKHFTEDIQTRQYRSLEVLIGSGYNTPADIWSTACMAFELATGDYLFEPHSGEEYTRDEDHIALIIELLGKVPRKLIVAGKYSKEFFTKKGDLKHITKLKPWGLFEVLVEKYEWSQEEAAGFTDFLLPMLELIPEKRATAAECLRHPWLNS
Activin receptor type-1-like (Homo sapiens), sequence (P37023 whole entry): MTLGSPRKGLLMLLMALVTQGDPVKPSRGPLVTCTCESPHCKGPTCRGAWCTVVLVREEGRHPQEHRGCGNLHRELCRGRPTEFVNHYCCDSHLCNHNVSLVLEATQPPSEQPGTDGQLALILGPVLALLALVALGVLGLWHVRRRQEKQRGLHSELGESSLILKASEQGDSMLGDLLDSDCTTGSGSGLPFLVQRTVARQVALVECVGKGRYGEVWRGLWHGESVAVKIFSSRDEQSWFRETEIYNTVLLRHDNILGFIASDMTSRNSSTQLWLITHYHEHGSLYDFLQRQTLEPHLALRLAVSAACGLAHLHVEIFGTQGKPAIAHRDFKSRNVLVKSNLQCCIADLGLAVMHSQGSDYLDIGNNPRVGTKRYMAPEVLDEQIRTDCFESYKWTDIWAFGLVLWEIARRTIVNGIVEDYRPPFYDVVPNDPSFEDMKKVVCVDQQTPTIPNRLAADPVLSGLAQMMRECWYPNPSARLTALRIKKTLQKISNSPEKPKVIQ
Angiopoietin-1 receptor (Homo sapiens), sequence (Q02763 whole entry): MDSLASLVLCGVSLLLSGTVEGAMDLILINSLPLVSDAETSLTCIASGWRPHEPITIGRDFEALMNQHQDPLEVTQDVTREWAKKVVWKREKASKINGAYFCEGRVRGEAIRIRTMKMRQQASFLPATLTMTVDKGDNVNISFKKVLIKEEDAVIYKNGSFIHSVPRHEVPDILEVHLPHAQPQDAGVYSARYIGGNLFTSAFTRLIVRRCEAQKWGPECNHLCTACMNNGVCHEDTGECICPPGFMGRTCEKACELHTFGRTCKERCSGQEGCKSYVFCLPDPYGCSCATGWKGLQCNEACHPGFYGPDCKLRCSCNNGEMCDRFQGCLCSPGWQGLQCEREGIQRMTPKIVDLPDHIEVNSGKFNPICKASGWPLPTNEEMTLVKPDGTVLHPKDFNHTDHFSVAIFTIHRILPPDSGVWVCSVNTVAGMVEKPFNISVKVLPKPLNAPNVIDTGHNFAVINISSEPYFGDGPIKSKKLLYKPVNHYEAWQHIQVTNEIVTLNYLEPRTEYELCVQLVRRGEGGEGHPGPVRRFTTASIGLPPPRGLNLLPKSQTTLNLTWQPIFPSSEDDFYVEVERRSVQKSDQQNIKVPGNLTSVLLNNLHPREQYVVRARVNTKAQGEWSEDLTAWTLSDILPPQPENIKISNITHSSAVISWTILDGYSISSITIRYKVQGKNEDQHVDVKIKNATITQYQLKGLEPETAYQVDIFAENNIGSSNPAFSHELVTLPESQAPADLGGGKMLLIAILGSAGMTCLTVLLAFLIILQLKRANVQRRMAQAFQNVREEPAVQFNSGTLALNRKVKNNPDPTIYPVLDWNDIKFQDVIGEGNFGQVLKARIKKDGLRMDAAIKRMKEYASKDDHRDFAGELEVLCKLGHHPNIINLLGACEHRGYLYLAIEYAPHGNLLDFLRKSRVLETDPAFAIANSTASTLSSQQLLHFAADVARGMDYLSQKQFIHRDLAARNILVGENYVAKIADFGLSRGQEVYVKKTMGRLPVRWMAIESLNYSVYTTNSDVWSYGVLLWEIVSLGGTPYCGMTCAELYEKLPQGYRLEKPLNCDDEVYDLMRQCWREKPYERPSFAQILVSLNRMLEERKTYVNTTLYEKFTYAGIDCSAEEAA
RAC-beta serine/threonine-protein kinase (Homo sapiens), sequence (P31751 whole entry): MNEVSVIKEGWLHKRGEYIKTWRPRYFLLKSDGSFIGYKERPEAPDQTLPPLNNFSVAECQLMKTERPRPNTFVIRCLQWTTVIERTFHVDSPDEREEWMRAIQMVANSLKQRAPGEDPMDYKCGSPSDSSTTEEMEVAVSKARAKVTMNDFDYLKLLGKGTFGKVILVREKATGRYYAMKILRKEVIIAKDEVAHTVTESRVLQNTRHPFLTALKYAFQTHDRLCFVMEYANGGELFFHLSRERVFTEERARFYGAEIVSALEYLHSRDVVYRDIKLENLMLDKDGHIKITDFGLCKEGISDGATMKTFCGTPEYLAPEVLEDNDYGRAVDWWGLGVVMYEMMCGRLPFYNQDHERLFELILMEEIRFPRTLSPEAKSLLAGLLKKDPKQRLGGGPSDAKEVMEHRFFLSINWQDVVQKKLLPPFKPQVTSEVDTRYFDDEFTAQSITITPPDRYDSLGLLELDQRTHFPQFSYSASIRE
Activated CDC42 kinase 1 (Homo sapiens), sequence (Q07912 whole entry, looked up): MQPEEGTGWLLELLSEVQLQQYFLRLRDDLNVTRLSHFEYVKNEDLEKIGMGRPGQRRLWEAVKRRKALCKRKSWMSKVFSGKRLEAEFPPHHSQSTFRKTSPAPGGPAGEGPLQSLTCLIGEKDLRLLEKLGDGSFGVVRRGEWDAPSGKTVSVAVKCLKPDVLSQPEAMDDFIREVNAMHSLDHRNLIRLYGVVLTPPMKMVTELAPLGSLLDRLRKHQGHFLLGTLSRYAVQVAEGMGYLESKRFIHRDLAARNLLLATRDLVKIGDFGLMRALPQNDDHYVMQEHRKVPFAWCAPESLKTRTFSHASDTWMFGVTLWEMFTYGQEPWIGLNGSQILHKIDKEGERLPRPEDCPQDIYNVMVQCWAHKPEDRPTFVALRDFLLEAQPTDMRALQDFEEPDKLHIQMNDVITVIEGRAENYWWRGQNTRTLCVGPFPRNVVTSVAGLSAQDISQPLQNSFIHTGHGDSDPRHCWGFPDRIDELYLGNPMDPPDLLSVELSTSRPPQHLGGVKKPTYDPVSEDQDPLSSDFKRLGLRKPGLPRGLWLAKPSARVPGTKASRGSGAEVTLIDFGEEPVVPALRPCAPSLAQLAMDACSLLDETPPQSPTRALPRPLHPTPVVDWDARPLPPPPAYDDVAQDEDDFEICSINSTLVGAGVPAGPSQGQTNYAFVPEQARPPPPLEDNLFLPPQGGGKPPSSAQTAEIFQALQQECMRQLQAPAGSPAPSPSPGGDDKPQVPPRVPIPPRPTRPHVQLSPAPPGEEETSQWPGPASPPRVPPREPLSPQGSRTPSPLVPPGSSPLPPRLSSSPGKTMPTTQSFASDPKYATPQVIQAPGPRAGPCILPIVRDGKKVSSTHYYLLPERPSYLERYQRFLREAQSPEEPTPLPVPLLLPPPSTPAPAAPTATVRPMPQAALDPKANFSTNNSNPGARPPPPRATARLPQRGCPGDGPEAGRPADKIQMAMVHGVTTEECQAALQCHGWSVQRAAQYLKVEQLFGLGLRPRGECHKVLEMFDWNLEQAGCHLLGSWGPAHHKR

| SMILES | inhibition [1] [%] | inhibition [2] [%] | inhibition [3] [%] | inhibition [4] [%] | inhibition [5] [%] | inhibition [6] [%] | inhibition [7] [%] | inhibition [8] [%] | inhibition [9] [%] | inhibition [10] [%] | inhibition [11] [%] | inhibition [12] [%] | inhibition [13] [%] | inhibition [14] [%] | inhibition [15] [%] |
| --- | --- | --- | --- | --- | --- | --- | --- | --- | --- | --- | --- | --- | --- | --- | --- |
| Oc1n[nH]c2nnc(-c3c(-c4ccccc4)nn4ccccc34)cc12 | 8.98 | -5.44 | -0.63 | 0.01 | 3.66 | -3.29 | 4.49 | -0.4 | 1.63 | -0.71 | 3.78 | -6.46 | 10.4 | 4.05 | 4.49 |
| Nc1n[nH]c2nnc(-c3c(-c4ccccc4)nn4ccccc34)cc12 | 17.3 | 2.47 | -6.11 | -0.67 | 2.74 | -3.98 | 36.5 | 2.52 | 3.58 | -0.43 | 1.2 | 12.7 | 16.3 | 3.45 | 8.91 |
